Data: patent US20260198493A1, “HYDRAZIDE COMPOUND AND AGRICULTURAL/HORTICULTURAL FUNGICIDE” (Nippon Soda Co., Ltd., priority 2022, published 2026)

How the values were obtained:
Colletotrichum acutatum = test: Fungicidal effect test against fungi causing apple anthracnose; settings: 96 h, read-out: growth inhibition ratio
Glomerella cingulata = test: Fungicidal effect test against fungi causing grape ripe rot disease; settings: Colletotrichum gloeosporioides, 72 h, read-out: growth inhibition ratio
Botrytis cinerea = assay type: cell-based; settings: 120 h, 25 ppm by volume, Vogel medium, 20° C., five days, dark, read-out: growth inhibition ratio

SMILES | inhibition of growth at 25 ppm (Colletotrichum acutatum) | inhibition of growth at 25 ppm (Glomerella cingulata) | inhibition of growth at 25 ppm (Botrytis cinerea)
Cc1ccc(CN(C)NC(=O)c2cc(C)nnc2Oc2cccc(C3CC3)c2F)c(C)c1 [b-2] | ≥ 75% | ≥ 75% | ≥ 75%
Cc1ccc(CN(NC(=O)c2cc(C)nnc2Oc2cccc(C3CC3)c2F)C(=O)C(F)(F)F)c(C)c1 [b-4] | ≥ 75% | ≥ 75% | ≥ 75%
CC(=O)N(Cc1ccc(C)cc1C)NC(=O)c1cc(Cl)nnc1Oc1cccc(C(F)(F)F)c1 [b-11] | ≥ 75% | ≥ 75% | ≥ 75%
Cc1cc(C(=O)NN(C=O)Cc2ccc(Cl)cc2Cl)c(Oc2cccc(C3CC3)c2F)nn1 [b-12] | ≥ 75% | ≥ 75% | ≥ 75%
COC(=O)N(Cc1ccc(C)cc1C)NC(=O)c1cc(C)nnc1Oc1cccc(C2CC2)c1F [b-17] | ≥ 75% | ≥ 75% | ≥ 75%
Cc1ccc(CN(NC(=O)c2cc(C)nnc2Oc2cccc(C3CC3)c2F)C(=O)C(C)(C)C)c(C)c1 [b-19] | ≥ 75% |  | 
Cc1ccc(CN(NC(=O)c2cc(C)nnc2Oc2cccc(C3CC3)c2F)C(=O)c2ccccc2)c(C)c1 [b-24] | ≥ 75% | ≥ 75% | ≥ 75%
Cc1ccc(CN(NC(=O)c2cc(C)nnc2Oc2cccc(C3CC3)c2F)C(=O)c2cnn(C)c2)c(C)c1 [b-39] | ≥ 75% | ≥ 75% | ≥ 75%
COC(=O)N(Cc1ccc(O)cc1C)NC(=O)c1cc(C)nnc1Oc1cccc(C2CC2)c1F [b-41] | ≥ 75% | ≥ 75% | 
Cc1ccc(CN(NC(=O)c2cc(C)nnc2Oc2cccc(C3CC3)c2F)C(=O)N(C)C)c(C)c1 [b-47] | ≥ 75% | ≥ 75% | 
Cc1ccc(CN(NC(=O)c2cc(C)ncc2Oc2cccc(C3CC3)c2F)C(=O)N(C)C)c(C)c1 [b-48] | ≥ 75% | ≥ 75% | ≥ 75%
Cc1ccc(CN(NC(=O)c2nc(C)ncc2Oc2cccc(C3CC3)c2F)C(=O)N(C)C)c(C)c1 [b-49] | ≥ 75% | ≥ 75% | 
COC(=O)N(Cc1ccc(C)cc1C)NC(=O)c1cc(C)nnc1Oc1ccc(C2CC2)cc1 [b-54] | ≥ 75% | ≥ 75% | ≥ 75%
Cc1ccc(CN(NC(=O)c2cc(C)nnc2Oc2cccc(C3CC3)c2F)C(=O)C(=O)N(C)C)c(C)c1 [b-56] | ≥ 75% | ≥ 75% | 
COC(=O)N(Cc1ccc(C)cc1C)NC(=O)c1cc(C)nnc1Oc1ccc2ccccc2c1 [b-61] | ≥ 75% | ≥ 75% | ≥ 75%
COC(=O)N(Cc1ccc(C)cc1C)NC(=NO)c1cc(C)nnc1Oc1cccc(C2CC2)c1F [b-63] | ≥ 75% | ≥ 75% | ≥ 75%
COc1ccc(CN(NC(=O)c2cc(C)nnc2Oc2cccc(C3CC3)c2F)c2cccc(C)c2)cc1 [b-73] |  | ≥ 75% | 
COC(=O)N(Cc1ccc(C)cc1C)NC(=O)c1cc(C)nnc1Sc1cccc(C(F)(F)F)c1 [b-78, Methyl 1-(2,4-dimethylbenzyl)-2-(6-methyl-3-((3-(trifluoromethyl)phenyl)thio)pyridazine-4-carbonyl)hydrazine-1-carboxylate] | ≥ 75% | ≥ 75% | ≥ 75%
COC(=O)C(=O)N(Cc1ccc(C)cc1C)NC(=O)c1cc(C)nnc1Oc1cccc(C2CC2)c1F [b-82] | ≥ 75% | ≥ 75% | ≥ 75%

SMILES | inhibition of growth at 25 ppm (Colletotrichum acutatum) | inhibition of growth at 25 ppm (Glomerella cingulata) | inhibition of growth at 25 ppm (Botrytis cinerea)
COC(=O)N(CCCc1ccc(C)cc1)NC(=O)c1cc(C)nnc1Oc1cccc(C2CC2)c1F [b-89] | ≥ 75% | ≥ 75% | ≥ 75%
COC(=O)N(Cc1ccc(C)cc1C)NC(=O)c1cc(C)nnc1Oc1ccc2cccnc2c1 [b-97] |  | ≥ 75% | 
COC(=O)N(Cc1ccc(C)cc1C)NC(=O)c1cc(C)nnc1Oc1ccc(Br)cc1F [b-98] |  |  | ≥ 75%
COC(=O)N(Cc1ccc(C)cc1C)NC(=O)c1cc(C)nnc1Oc1ccc(Cl)cc1F [b-99] |  |  | ≥ 75%
COC(=O)N(Cc1sc(Cl)nc1Cl)NC(=O)c1cc(C)nnc1Oc1cccc(C2CC2)c1F [b-120] | ≥ 75% | ≥ 75% | ≥ 75%
COC(=O)N(Cc1ccc(C)cc1C)NC(=O)c1nc(C)nnc1Oc1cccc(Br)c1 [b-129] | ≥ 75% | ≥ 75% | ≥ 75%
COC(=O)N(Cc1ccc(C)cc1C)NC(=O)c1cc(C)nnc1Oc1cccc(C(C)=O)c1 [b-131] | ≥ 75% | ≥ 75% | 
COC(=O)N(Cc1ccc(C)cc1C)NC(=O)c1cc(C)nnc1Oc1cccc(C(C)C)c1 [b-132] | ≥ 75% | ≥ 75% | 
COC(=O)N(Cc1ccc(C)cc1C)NC(=O)c1cc(C)nnc1Oc1cccc(OC(F)(F)F)c1 [b-133] | ≥ 75% | ≥ 75% | ≥ 75%
COC(=O)N(Cc1ccc(C)cc1C)NC(=O)c1cc(C)nnc1Oc1cccc(SC)c1 [b-136] | ≥ 75% | ≥ 75% | ≥ 75%
COC(=O)N(Cc1ccc(C)cc1C)NC(=O)c1cc(C)nnc1Oc1cccc(N(C)C)c1 [b-137] | ≥ 75% | ≥ 75% | 
COC(=O)N(Cc1ccc(C)cc1C)NC(=O)c1cnncc1Oc1cccc(C2CC2)c1F [b-142, Methyl 2-(5-(3-cyclopropyl-2-fluorophenoxy)pyridazine-4-carbonyl)-1-(2,4-dimethylbenzyl)hydrazine-1-carboxylate] | ≥ 75% | ≥ 75% | ≥ 75%
COC(=O)N(Cc1cnc2ccccc2c1)NC(=O)c1cc(C)nnc1Oc1cccc(C2CC2)c1F [b-161] | ≥ 75% | ≥ 75% | 
Cc1cc(C(=O)NN2CCCc3ccccc32)c(Oc2cccc(C3CC3)c2F)nn1 [b-198] |  | ≥ 75% | 
COC(=O)N(Cc1ccc(C)cc1C)NC(=O)c1c(Oc2cccc(Cl)c2F)cncc1Oc1cccc(Cl)c1F [b-203] | ≥ 75% | ≥ 75% | 
COC(=O)N(Cc1ccc(C)cc1C)NC(=O)c1cc2cncn2nc1Oc1cccc(C2CC2)c1 [b-210, Methyl 2-(2-(3-cyclopropylphenoxy)imidazo[1,5-b]pyridazine-3-carbonyl)-1-(2,4-dimethylbenzyl)hydrazine-1-carboxylate] | ≥ 75% | ≥ 75% | 
COC(=O)N(Cc1ccc(C)cc1C)NC(=O)c1c(C#N)cncc1Oc1cccc(C2CC2)c1F [b-216] | ≥ 75% | ≥ 75% | 
COC(=O)N(Cc1ccc(C)cc1C)NC(=O)c1cc(NC(=O)OC(C)(C)C)nnc1Oc1cccc(Cl)c1F [b-218] |  |  | ≥ 75%
COC(=O)N(NC(=O)c1cc(C)nnc1Oc1cccc(C2CC2)c1F)c1ccc(C)s1 [b-222] |  | ≥ 75% | 
